In ChEMBL document CHEMBL1147374, “Chemical constituents of Aristolochia rigida and mutagenic activity of aristolochic acid IV” (J Nat Prod, 1993):

What was measured:
Conditions in all cases: salmonella enterica subsp. enterica serovar typhimurium; call rule not given here
Salmonella typhimurium [1] = test: Mutagenic activity in Salmonella Typhimurium TA100 assessed as increase in number of histidine revertants up to 100 ug/plate after 48 hrs in presence of rat S9 liver homogenate by Ames test; format: toxicity, organism-based, Liver S9 fraction
Salmonella typhimurium [2] = test: Toxicity in Salmonella Typhimurium TA100 up to 100 ug/plate; format: organism-based
Salmonella typhimurium [3] = test: Mutagenic activity in Salmonella typhimurium TA100 assessed as number of histidine revertants after 48 hrs in presence of phenobarbital treated rat S9 liver homogenate by Ames test; format: toxicity, organism-based, Liver S9 fraction
Salmonella typhimurium [4] = test: Toxicity in Salmonella Typhimurium TA100 at 500 ug/plate; format: organism-based

SMILES: COc1cc(OC)c2cc([N+](=O)[O-])c3c(C(=O)O)cc4c(c3c2c1)OCO4 [ARISTOLOCHIC ACID IV]
- Activity (Salmonella typhimurium [1]): Active
- Activity (Salmonella typhimurium [2]): Non-toxic
- Activity (Salmonella typhimurium [3]): Dose-dependent effect
- Activity (Salmonella typhimurium [4]): Toxic
